For data set [1], the target named is alpha-hemolysin toxin of S. aureus (Staphylococcus aureus, UniProt P09616). It counts as cell-based.
For a further data set, the system named is Aspergillus flavus. Conditions: added to the fungal growth medium prior to inoculation; cited from earlier work.
The conditions of data set [2]: 2.5% NaOCl, cited from earlier work.
Data set [3] concerns root canal microorganisms. Conditions: 2.5% NaOCl, after biomechanical preparation; cited from earlier work.
The subject of data set [4] is streptokinase enzyme from S. pyogenes. Description: streptokinase inactivation, clot formation enzymatic assay. The data set is classed as biochemical. The settings on record: streptokinase 175 U/mL incubated 1 hour; fibrin remained insoluble, glass bead remained at top. The procedure:
Inactivation of streptokinase was determined by clot formation enzymatic assay (Sigma Aldrich, St. Louis, Mo.), whereby thrombin converts the soluble fibrinogen into […] (Crew 2013). In the presence of streptokinase enzyme from S. pyogenes, the insoluble fibrin is converted into soluble fibrin fragments. Several hours before the study, streptokinase 175 U/mL) was incubated with the irrigation solution for 1 hour, followed by inactivation of excess irrigation solution by adding an equal volume of 20 mM methionine for 1 hour at room temperature.
In a separate glass tube, fibrinogen solution containing borate buffer, gelatin diluent, and plasminogen were mixed by swirling, and then equilibrated at 37° C. for 3 minutes. Irrigation solution and methionine treated streptokinase was added to the solution, mixed by swirling, and equilibrated at 37° C. for 1 minute prior to the addition of thrombin. The solution was mixed by swirling and equilibrated at 37° C. for approximately 2-3 minutes to allow for clot formation. A 4 mm glass bead was added to the top of the reaction mixture, and the time for the glassbead to touch the bottom of the tube was observed. In this clot assay, 0.001 μg/mL of the hypochlorous acid completely inactivated streptokinase, causing the fibrin to remain insoluble in solution, and the glass bead to remain at the top of the reaction mixture.

The next data set has as its system A549 cells. Conditions: pH 4.

Where “and” joins values, the source holds several entries; their conditions need not be identical. Equal entries are not always repeated. Where two headings read alike, the source gives them in different places.

Chain of alpha-hemolysin toxin of S. aureus (P09616 27-319 limits assumed): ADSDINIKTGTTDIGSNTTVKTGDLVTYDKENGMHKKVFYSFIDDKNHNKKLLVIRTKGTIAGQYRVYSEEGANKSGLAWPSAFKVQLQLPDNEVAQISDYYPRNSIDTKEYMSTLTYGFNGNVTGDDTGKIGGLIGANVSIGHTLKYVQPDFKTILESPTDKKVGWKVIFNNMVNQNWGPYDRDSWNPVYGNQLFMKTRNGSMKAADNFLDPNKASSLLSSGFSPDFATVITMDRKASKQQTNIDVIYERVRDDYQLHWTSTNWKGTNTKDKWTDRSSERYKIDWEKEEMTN

What is called EC50 is the concentration at which the effect is half-maximal. A high value points to a need for much substance. With `[Na+].[O-]Cl` [hypochlorite, sodium hypochlorite], in data set [1], the EC50 is 0.95 ± 0.18 µg/mL and 0.99 ± 0.06 µg/mL. Moreover, the “NaOCl concentration that completely inhibited the fungal growth” value with Aspergillus flavus was 2.8 mM. Further, the endotoxins reduced is listed as 83.2% in data set [2] (7 days after biomechanical preparation) and 88.8% in data set [2] (immediately after biomechanical preparation). For the same molecule, the “root canal microorganisms eliminated” value in data set [3] is 100%.

Consider `OCl` [HOCl, hypochlorous acid], for which the “concentration that completely inactivated streptokinase” value in data set [4] is 0.001 µg/mL. Besides, in the data set with A549 cells, the “Dilution of wound exudate cytotoxic to A549 cells” value is on record as 1:4.

The values above are taken from patent US20160331779A1 (priority 2015, published 2016).
